Source: the supplement of paper PMC10307832

How the values were obtained:
Assay in all cases: relative viability (nuclei count vs DMSO), 5 days (fraction); higher = more cells survive
[1] = compound: CC(C)C[C@H](NC(=O)[C@H](CCc1ccccc1)NC(=O)CN1CCOCC1)C(=O)N[C@@H](Cc1ccccc1)C(=O)N[C@@H](CC(C)C)C(=O)[C@@]1(C)CO1 [Carfilzomib]
Procedure, shortened: (§1)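 Lung cancer cell lines were seeded into 1536-well plates, kept overnight at 37 °C and pinned with five library-drug doses (not always all listed) spaced by √10. After 5 days, nuclei were Hoechst-stained, imaged at 4× and counted with MetaXpress. Viability is treated-well nuclei over vehicle-well nuclei, taken as a median across plates. Plates needed control CV below 25% and at least one doubling.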

[2] = compound: O=C(c1cc(Cc2n[nH]c(=O)c3ccccc23)ccc1F)N1CCN(C(=O)C2CC2)CC1 [Olaparib]
Procedure, shortened: as §1

[3] = compound: C[C@@H](Oc1cc(-c2cnn(C3CCNCC3)c2)cnc1N)c1c(Cl)ccc(F)c1Cl [Crizotinib]
Procedure, shortened: as §1

Cell Line | relative viability ([1]; 0.001 µM) | relative viability ([1]; 0.003162 µM) | relative viability ([1]; 0.01 µM) | relative viability ([1]; 0.03162 µM) | relative viability ([1]; 0.1 µM) | relative viability ([2]; 0.08 µM) | relative viability ([2]; 0.253 µM) | relative viability ([2]; 2.53 µM) | relative viability ([2]; 8 µM) | relative viability ([2]; 8 µM, anchor plate) | relative viability ([3]; 0.01 µM) | relative viability ([3]; 0.03162 µM) | relative viability ([3]; 0.1 µM) | relative viability ([3]; 0.3162 µM) | relative viability ([3]; 1 µM) | relative viability ([3]; 1 µM, anchor plate)
NCI-H1355 | 0.876 | 1.04 | 1.01 | 0.946 | 0.18 | 1.02 | 0.962 | 0.981 | 0.91 | 0.754 | 0.983 | 1.01 | 1.05 | 0.797 | 0.981 | 1.05
NCI-H1395 | 0.764 | 1.08 | 0.669 | 0.437 | 0.34 | 1.01 | 0.806 | 0.663 | 0.538 | 0.479 | 0.819 | 0.943 | 1.05 | 0.811 | 0.739 | 
NCI-H1437 | 0.952 | 1.07 | 1.04 | 0.884 | 0.358 | 1.02 | 0.873 | 0.927 | 0.814 | 0.617 | 0.951 | 1.03 | 0.996 | 0.884 | 1.08 | 
NCI-H1563 | 0.945 | 1.08 | 1.03 | 0.934 | 0.613 | 1.16 | 0.902 | 1.01 | 0.912 |  | 0.887 | 0.995 | 0.908 | 1 | 1.06 | 0.843
NCI-H1623 | 0.972 | 1.12 | 1.04 | 0.885 | 0.33 | 1.07 | 0.987 | 0.917 | 0.791 |  | 0.891 | 1.01 | 0.915 | 0.89 | 0.891 | 
NCI-H1648 | 0.845 | 1.11 | 1.14 | 0.725 | 0.416 | 0.956 | 0.908 |  | 1.2 | 0.818 | 0.742 | 1.33 | 0.651 | 0.958 | 1.1 | 
NCI-H1650 | 0.986 | 0.975 | 0.341 | 0.141 | 0.186 | 1.21 | 0.848 | 0.785 | 0.871 | 0.812 | 0.842 | 0.993 | 0.969 | 0.891 | 0.931 | 1.02
NCI-H1651 | 0.964 | 1.01 | 0.879 | 0.327 | 0.12 | 0.934 | 0.902 | 0.755 | 0.494 | 0.188 | 0.954 | 0.994 | 0.938 | 0.991 | 1.08 | 0.884
NCI-H1666 | 1.02 | 1.07 | 1.06 | 0.981 | 0.437 | 0.985 | 0.916 | 0.821 | 0.838 | 0.738 | 0.952 | 1.02 | 0.985 | 0.971 | 0.987 | 1.04
NCI-H1703 | 0.839 | 1.22 | 0.439 | 0.132 | 0.128 | 1.1 | 0.826 | 0.983 | 0.974 | 0.453 | 0.794 | 1.08 | 0.918 | 0.968 | 1.14 | 0.728
NCI-H1734 | 0.972 | 1.04 | 0.904 | 0.354 | 0.124 | 1.06 | 0.935 | 0.862 | 0.726 | 0.635 | 0.913 |  | 0.886 |  | 0.955 | 0.672
NCI-H1755 | 1.01 | 1.02 | 1 | 1.01 | 0.788 | 1.08 | 0.89 | 1.05 | 0.939 | 0.881 | 0.943 | 0.987 |  | 0.944 | 1 | 0.863
NCI-H1792 | 0.827 | 0.962 | 0.957 | 0.658 | 0.388 | 0.923 | 0.725 | 0.773 | 0.605 | 0.419 | 0.886 | 1.01 | 1.09 |  | 0.909 | 0.997
NCI-H1915 | 0.954 | 1.08 | 0.871 | 1 | 0.184 | 1.02 | 0.892 | 0.779 | 0.559 | 0.269 |  | 0.99 | 1.02 |  | 1.02 | 0.908
NCI-H1944 | 0.907 | 1.03 | 0.927 | 1 | 0.343 | 0.921 | 0.806 | 0.656 | 0.646 | 0.419 | 0.879 | 0.992 | 0.907 | 1.02 | 0.893 | 1.1
NCI-H1975 | 0.946 | 1.05 | 0.808 | 0.146 | 0.137 | 0.985 | 0.919 | 0.912 | 0.901 | 0.789 | 0.884 | 0.992 | 0.967 | 0.921 | 1.02 | 0.979
NCI-H1993 | 0.943 | 0.999 | 1.01 | 0.818 | 0.426 | 0.909 | 0.956 | 0.978 | 1.01 | 1.12 | 0.859 | 0.978 | 0.807 | 0.798 | 0.753 | 0.872
NCI-H2009 | 1.07 | 1.05 | 1.02 | 0.44 | 0.0846 | 1.07 | 0.959 | 0.94 | 0.9 | 0.679 | 0.953 | 1 | 1.05 | 0.986 | 1 | 1.04
